Laboratory results from PMC6481345, “A novel anti-melanoma SRC-family kinase inhibitor” (Oncotarget, 2019).
Read-outs that look alike come from different tables or passages of the source.

Tests used:
[1] = system: MDA-MB-435 melanoma cell line; assay: NCI-60 human tumor cell line screen; assay type: cell-based
Method: (§1) We first tested the impact of SAB298 on NCI-60 human tumor cell lines that included eight melanomas (performed by the NCI Development Therapeutics Program).
(§2) SFK-inhibitors were tested on a panel of NCI-60 cell lines (Supplementary Table 1) and 30 melanoma cell lines and NBMEL, i.e., normal human melanocytes isolated from a newborn foreskin (Table 1 and Supplementary Table 2). The Yale melanoma cohort designated YU originated from tumors excised to improve patient quality of life and used with participants’ informed consent according to Health Insurance Portability and Accountability Act (HIPAA) regulations with Human Investigative Committee protocol.
(§3) Supplementary Table 1: Cellular activity of SAB298 in a Panel of NCI-60 cancer cell lines*
(§4) measured protein; and TI is LC50/GI50.
(§5) Supplementary Table 2: Description of Melanoma Cell lines. See Supplementary_Table_2

SR leukemia cell line = assay: NCI-60 human tumor cell line screen; assay type: cell-based
Method: as §1, §2, §3, §4, §5

[2] = system: MALME-3M melanoma cell line; assay: NCI-60 human tumor cell line screen; assay type: cell-based
Method: as §1, §2, §3, §4, §5

[3] = system: KM12 colon cancer cell line; assay: NCI-60 human tumor cell line screen; assay type: cell-based
Method: as §1, §2, §3, §4, §5

[4] = system: CCRF-CEM leukemia cell line; assay: NCI-60 human tumor cell line screen; assay type: cell-based
Method: as §1, §2, §3, §4, §5

[5] = system: UACC-62 melanoma cell line; assay: NCI-60 human tumor cell line screen; assay type: cell-based
Method: as §1, §2, §3, §4, §5

[6] = system: HCT-116 colon cancer cell line; assay: NCI-60 human tumor cell line screen; assay type: cell-based
Method: as §1, §2, §3, §4, §5

[7] = system: SF-268 CNS cancer cell line; assay: NCI-60 human tumor cell line screen; assay type: cell-based
Method: as §1, §2, §3, §4, §5

[8] = system: SK-MEL-2 melanoma cell line; assay: NCI-60 human tumor cell line screen; assay type: cell-based
Method: as §1, §2, §3, §4, §5

HOP-62 NSCLC cell line = assay: NCI-60 human tumor cell line screen; assay type: cell-based
Method: as §1, §2, §3, §4, §5

[9] = system: UACC-257 melanoma cell line; assay: NCI-60 human tumor cell line screen; assay type: cell-based
Method: as §1, §2, §3, §4, §5

M14 melanoma cell line = assay: NCI-60 human tumor cell line screen; assay type: cell-based
Method: as §1, §2, §3, §4, §5

501 mel melanoma cells = assay: CellTiter-Glo Luminescent Cell Viability Assay; assay type: cell-based, human; details: for IC50: Homo sapiens
Method: (§6) The melanoma cells were grown in OptiMEM (Invitrogen, Carlsbad, CA) supplemented with 5% fetal calf serum and antibiotics. The normal human melanocytes (NBMEL) were grown in medium supplemented with bFGF, IBMX and dbcAMP [32]. Most of the Yale melanoma cell lines were characterized by next-generation sequencing (Supplementary Table 2).
(§7) Cell proliferation was measured with the CellTiter-Glo® Luminescent Cell Viability Assay (Promega Corporation, Madison, WI). Melanoma cells were seeded in 96-well plates in triplicate or quadruplet wells, with increasing concentrations of kinase inhibitors for 72 hrs. The rate of proliferation was also tested after knockdown of different SRC-family kinases (SFK) with hairpin lentivirus shRNA as indicated. […] The statistical significance of synergism of response to drug combinations was evaluated by following Chou and Talalay algorithm. See also details in Supplementary Material.

YUKIM melanoma cells = assay: CellTiter-Glo Luminescent Cell Viability Assay; assay type: cell-based, human
Method: as §6, §7

YUSIK melanoma cells = assay: CellTiter-Glo Luminescent Cell Viability Assay; assay type: cell-based, human
Method: as §6, §7

YUPEET melanoma cells = assay: CellTiter-Glo Luminescent Cell Viability Assay; assay type: cell-based, human
Method: as §6, §7

YUSIV melanoma cells = assay: CellTiter-Glo Luminescent Cell Viability Assay; assay type: cell-based, human
Method: as §6, §7

YUROB melanoma cells = assay: CellTiter-Glo Luminescent Cell Viability Assay; assay type: cell-based, human
Method: as §6, §7

YUSIT1 melanoma cells = assay: CellTiter-Glo Luminescent Cell Viability Assay; assay type: cell-based, human
Method: as §6, §7

YUGASP melanoma cells = assay: CellTiter-Glo Luminescent Cell Viability Assay; assay type: cell-based, human; details: growth response
Method: as §6, §7

YUSOC melanoma cells = assay: CellTiter-Glo Luminescent Cell Viability Assay; assay type: cell-based, human; details: RAF1 T491I, NF1 null/RAC1 P29S
Method: as §6, §7

YUSEEP melanoma cells = assay: CellTiter-Glo Luminescent Cell Viability Assay; assay type: cell-based, human; details: growth response
Method: as §6, §7

[10] = 50% growth inhibition, five dose, average of 2 experiments
[11] = cytotoxic concentration, 50% reduction in measured protein, read-out: LC50 (the source's name)

## Nc1ncnc2c1c(-c1ccc(Oc3ccccc3)cc1)nn2C[C@@H]1SSC[C@@H]1O [SAB298, (3S, 4S)-3-((4-amino-3-(4-phenoxyphenyl)-1H-pyrazolo[3,4-d]pyrimidin-1-yl)methyl)-1,2-dithiolan-4-ol]
[1]; [10]
  GI50: 0.103 µM
[1]; [11]
  CC50: 0.618 µM
SR leukemia cell line; [10]
  GI50: 0.038 µM
SR leukemia cell line; [11]
  CC50: > 100 µM
[2]; [10]
  GI50: 0.55 µM
[2]; [11]
  CC50: > 100 µM
[3]; [10]
  GI50: 0.181 µM
[3]; [11]
  CC50: 79.3 µM
[4]; [10]
  GI50: 0.061 µM
[4]; [11]
  CC50: > 100 µM
[5]; [10]
  GI50: 0.182 µM
[5]; [11]
  CC50: 0.872 µM
[6]; [10]
  GI50: 0.134 µM
[6]; [11]
  CC50: 6.52 µM
[7]; [10]
  GI50: 0.038 µM
[7]; [11]
  CC50: > 100 µM
[8]; [10]
  GI50: 0.212 µM
[8]; [11]
  CC50: 19.4 µM
HOP-62 NSCLC cell line; [10]
  GI50: 0.227 µM
HOP-62 NSCLC cell line; [11]
  CC50: 23.6 µM
[9]; [10]
  GI50: 0.374 µM
[9]; [11]
  CC50: 93.5 µM
M14 melanoma cell line; [10]
  GI50: 0.021 µM
M14 melanoma cell line; [11]
  CC50: 0.105 µM
501 mel melanoma cells; 501 mel, growth response
  AUC1: 37
  AUC2: 133
501 mel melanoma cells; 501 mel BRAF V600E, Variation 2 (0 effect omitted), read-out: Dm (dose for median effect, median-effect equation)
  IC50: 3.86 µM
501 mel melanoma cells; 501 mel BRAFV600E, Variation 1 (0 effect coded 1E-6), read-out: Dm (dose for median effect, median-effect equation)
  IC50: 7.15 µM
501 mel melanoma cells; 72 h, 501 mel, BRAF V600E, cell viability, 72 hrs, read-out: IC50
  IC50: 0.551 µM
YUKIM melanoma cells; Homo sapiens, NRAS Q61R, cell viability, 72 hrs
  IC50: 0.561 µM
YUKIM melanoma cells; growth response
  AUC1: 173
  AUC2: 60
YUSIK melanoma cells; Homo sapiens, 72 h, YUSIK, BRAF V600E, cell viability, 72 hrs, read-out: IC50
  IC50: 0.129 µM
YUSIK melanoma cells; Homo sapiens, YUSIK BRAF V600E, Variation 2 (0 effect omitted), read-out: Dm (dose for median effect, median-effect equation)
  IC50: 0.155 µM
YUSIK melanoma cells; Homo sapiens, YUSIK BRAFV600E, Variation 1 (0 effect coded 1E-6), read-out: Dm (dose for median effect, median-effect equation)
  IC50: 0.864 µM
YUSIK melanoma cells; YUSIK, BRAF V600E, cell viability, 72 hrs, read-out: IC50
  IC50: 0.141 µM
YUSIK melanoma cells; YUSIK, growth response
  AUC1: 540
  AUC2: 23
YUPEET melanoma cells; Homo sapiens, BRAF V600E, cell viability, 72 hrs
  IC50: 0.055 µM
YUPEET melanoma cells; growth response
  AUC1: 672
  AUC2: 7
YUSIV melanoma cells; Homo sapiens, PDE8A-RAF1 fusion, cell viability, 72 hrs
  IC50: 0.081 µM
YUSIV melanoma cells; growth response
  AUC1: 656
  AUC2: 10
YUROB melanoma cells; Homo sapiens, 72 h, YUROB, HRAS Q61K, cell viability, 72 hrs, read-out: IC50
  IC50: 0.696 µM
YUROB melanoma cells; Homo sapiens, YUROB HRAS Q61K, Variation 2 (0 effect omitted), read-out: Dm (dose for median effect, median-effect equation)
  IC50: 1.86 µM
YUROB melanoma cells; Homo sapiens, YUROB HRASQ61K, Variation 1 (0 effect coded 1E-6), read-out: Dm (dose for median effect, median-effect equation)
  IC50: 5.18 µM
YUROB melanoma cells; YUROB, HRAS Q61K, cell viability, 72 hrs, read-out: IC50
  IC50: 1.25 µM
YUROB melanoma cells; YUROB, growth response
  AUC1: 148
  AUC2: 9
YUSIT1 melanoma cells; Homo sapiens, YUSIT1, BRAF V600K, cell viability, 72 hrs
  IC50: 0.238 µM
YUSIT1 melanoma cells; YUSIT1, growth response
  AUC1: 166
  AUC2: 32
YUGASP melanoma cells
  AUC1: 119
  AUC2: 103
YUSOC melanoma cells; Homo sapiens, 72 h
  IC50: 0.154 µM
YUSOC melanoma cells; 72 hrs
  IC50: 0.157 µM
YUSEEP melanoma cells
  AUC1: 292
  AUC2: 40
